Data as given in US9216183B2, “Topical treatment for chemotherapy induced eyelash loss or hypotrichosis using prostamide F2 alpha agonists” (ALLERGAN, INC., priority 2002, dated 2015).
Values joined by “and” are separate entries in the source; they are usually repeats but may differ in a detail not shown here. Equal entries are not always repeated.

Experiments:
[1] = Safety (adverse events, IOP), idiopathic hypotrichosis subpopulation; assay type: in vivo, human
Experimental: Safety measures included adverse events (AEs), ophthalmic examination (ophthalmoscopy [dilated], biomicroscopy, IOP, iris color assessment, and BCVA). AEs were monitored throughout the study by the investigator.
The 12-month data were the primary focus of the safety evaluation. Safety data were summarized with descriptive statistics (n, or frequency distributions [counts or percentages]). Biomicroscopic examinations and assessments of iris color, IOP, and BCVA were performed for each subject at screening/baseline and months 1, 2, 4, 6, 8, and 12 (or early termination prior to month 12); ophthalmoscopic examinations (dilated) were performed at screening/baseline and months 6 and 12 (or early termination prior to month 12). Two IOP measurements were taken for each eye at each visit; a third measurement was taken if the difference between the first 2 measurements was more than 2 mm Hg. The average or median IOP was determined in the event that 2 or 3 measurements were made, respectively. The IOP value analyzed at each visit was the average IOP of the subject's 2 eyes. Change and percent change from baseline in IOP were summarized by descriptive statistics. Between-group comparison will be performed using the 1-way analysis of variance.

[2] = system: eyelashes of subjects with chemotherapy-induced hypotrichosis; assay: GEA / ESQ Domain 2 responder analysis, 1-year clinical study, chemotherapy-induced hypotrichosis; assay type: in vivo, human
Excerpt: The full 12-month study consisted of 2 distinct 6-month treatment periods, treatment period 1 (TP1) and treatment period 2 (TP2). Eligible post-chemotherapy subjects were randomly assigned in a 3:1 ratio to receive bimatoprost or vehicle for TP1. In TP2, the subjects were either maintained on or switched to bimatoprost treatment. The primary efficacy endpoint was the proportion of treatment responders at month 4 based on a composite endpoint, defined by: a) at least a 1-grade improvement from baseline in the GEA score, and b) at least a 3-point improvement from baseline in the total score for Domain 2 of the ESQ. The GEA is an investigator assessment of eyelash prominence and the ESQ score is patients own perception of their eyelashes. A one-year, multicenter, randomized, double-masked, vehicle-controlled study. Adult post-chemotherapy and idiopathic eyelash hypotrichosis subjects were enrolled based on their score of 1 or 2 on a four point ordinal Global Eyelash Assessment (GEA) scale, and in addition having a low score on a PRO measure associated with 'psychological impact' of the condition, a domain-2 of the Eyelash Satisfaction Questionnaire (ESQ). The study involved two treatment periods of six months each. In the first treatment period, subjects for both populations were randomized 3:1 for QD bimatoprost: vehicle treatment. In the second 6-month treatment period, all subjects were moved to bimatoprost treatment, except for a group of bimatoprost treated idiopathic hypotrichosis subjects (n=55) who were switched to vehicle to investigate the effect of drug discontinuation. The study included 9 visits over the 12-month treatment period. The primary end point was the proportion of responders within each treatment group based on a composite measure of GEA and ESQ Domain-2 (investigator assessed eyelash prominence and subject's assessment of 'psychological impact' related to eyelashes) at month-4. This multicenter, double-masked, randomized, parallel-group study included two 6-month treatment periods. Subjects with idiopathic hypotrichosis were randomized to 3 treatment groups: 1) treatment period 1 (TP1) and TP2: bimatoprost; 2) TP1: bimatoprost; TP2: vehicle; and 3) TP1: vehicle; TP2: bimatoprost. Subjects with chemotherapy-induced hypotrichosis were randomized to 2 treatment groups: 1) TP1: bimatoprost or vehicle; and 2) TP2: bimatoprost. The primary endpoint was a composite of at least a 1-grade improvement in investigator-assessed Global Eyelash Assessment (GEA), and at least a 3-point improvement in subject-reported Eyelash Satisfaction Questionnaire (ESQ) Domain 2 (self-perceived confidence, attractiveness, and professionalism) at month 4. Secondary measures included digitally assessed eyelash characteristics (i.e., eyelash length, fullness, and darkness). Idiopathic hypotrichosis subjects were randomized to 3 treatment arms in a 2:1:1 ratio: bimatoprost during both treatment periods; vehicle in TP1 and bimatoprost in TP2; and bimatoprost in TP1 and vehicle in TP2. Chemotherapy-induced hypotrichosis subjects were randomized in a 3:1 ratio to receive bimatoprost during both treatment periods or vehicle in TP1 followed by bimatoprost in TP2. Male or female subjects at least 18 years of age who met these criteria were eligible for inclusion in the study: a score of 1 or 2 on the clinician-graded global eyelash assessment (“GEA”); a score of 1 (very much disagree) or 2 (disagree) on each of 3 items (16 [confidence], 19 [attractiveness], and 18 [professionalism]) on the subject-assessed eyelash satisfaction questionnaire (“esq”); best-corrected visual acuity (“bcva”) score equivalent to a […] acuity of 20/100 or better in each eye; and intraocular pressure (“iop”) 20 mm hg or less in each eye. […]

[3] = postchemotherapy, Month 4, listed as Bimatoprost
[4] = postchemotherapy, Month 4, listed as bimatoprost
[5] = postchemotherapy, Month 12, bimatoprost throughout

Which Conjunctival hyperaemia ([1]; 0 to 6 Months (N = 118)) does the source give for `CCNC(=O)CCC/C=C\C[C@@H]1[C@@H](/C=C/[C@@H](O)CCc2ccccc2)[C@H](O)C[C@@H]1O` [Bim 0.03%, bimatoprost] here?
Its Conjunctival hyperaemia is 5.9%.

And the Erythema of eyelid ([1]; 0 to 6 Months (N = 118))?
Its Erythema of eyelid is 1.7%.

What about the Eye pruritus ([1]; 0 to 6 Months (N = 118)) of the same compound?
The Eye pruritus was 0.8%.

And the Eyelids pruritus ([1]; 0 to 6 Months (N = 118))?
The Eyelids pruritus was 5.1%.

And the Punctate keratitis ([1]; 0 to 6 Months (N = 118))?
Its Punctate keratitis is 2.5%.

What about the Skin hyperpigmentation ([1]; 0 to 6 Months (N = 118)) of the same compound?
Its Skin hyperpigmentation is 0.0%.

And the Conjunctival hyperaemia ([1]; 0 to 12 Months (N = 118))?
The Conjunctival hyperaemia was 8.5%.

What about the Erythema of eyelid ([1]; 0 to 12 Months (N = 118)) of the same compound?
The Erythema of eyelid was 5.1%.

And the Eye pruritus ([1]; 0 to 12 Months (N = 118))?
The Eye pruritus was 0.8%.

What about the Eyelids pruritus ([1]; 0 to 12 Months (N = 118)) of the same compound?
The Eyelids pruritus was 5.9%.

What about the Punctate keratitis ([1]; 0 to 12 Months (N = 118)) of the same compound?
Its Punctate keratitis is 2.5%.

What about the Skin hyperpigmentation ([1]; 0 to 12 Months (N = 118)) of the same compound?
Its Skin hyperpigmentation is 1.7%.

What about the Conjunctival hyperaemia ([1]; 6 to 12 Months (N = 106)) of the same compound?
The Conjunctival hyperaemia was 3.8%.

And the Erythema of eyelid ([1]; 6 to 12 Months (N = 106))?
The Erythema of eyelid was 4.7%.

And the Eye pruritus ([1]; 6 to 12 Months (N = 106))?
The Eye pruritus was 0.0%.

What about the Eyelids pruritus ([1]; 6 to 12 Months (N = 106)) of the same compound?
Its Eyelids pruritus is 0.9%.

What about the Punctate keratitis ([1]; 6 to 12 Months (N = 106)) of the same compound?
Its Punctate keratitis is 0.0%.

What about the Skin hyperpigmentation ([1]; 6 to 12 Months (N = 106)) of the same compound?
Its Skin hyperpigmentation is 1.9%.

What about the “Mean change from baseline in IOP” value ([1]; month 4, IOP measured in mm Hg) of the same compound?
Its value is −1.17.

And the “GEA response rate (FIG. 9)” value ([2]; chemotherapy-induced hypotrichosis, duration of the trial)?
The value was “about 80%”.

What about the “Primary composite endpoint responders (≧1-grade GEA and ≧3-point ESQ Domain 2 improvement)” value (shortened to “Primary composite endpoint responders”) ([2]; postchemotherapy, Month 1) of the same compound?
Its value is “(6.3%)”.

What about the “Primary composite endpoint responders” value ([2]; postchemotherapy, Month 2) of the same compound?
The value was “(22.9%)”.

And the “Responders with ≧1-grade increase in GEA score” value ([2]; postchemotherapy, Month 4)?
The value was 72.9%.

What about the “Responders with ≧2-grade increase in GEA score” value ([2]; postchemotherapy, Month 4) of the same compound?
Its value is 36.5%.

And the “Responders with ≧3-point increase in ESQ Domain 2” value (“Responders with ≧3-point increase” for short) ([2]; postchemotherapy, Month 4)?
Its value is 40.6%.

And the “Primary composite endpoint responders” value [2, 3]?
Its value is 37.5%.

What about the “Responders with ≧1-grade increase in GEA score” value [2, 3] of the same compound?
The value was 72.9%.

What about the “Primary composite endpoint responders” value [2, 4] of the same compound?
The value was 37.5%.

What about the “Responders with ≧1-grade increase in GEA score” value [2, 4] of the same compound?
The value was > 70% and 72.9%.

What about the “Primary composite endpoint responders” value ([2]; postchemotherapy, Month 4, listed as bimatoprost 0.03%) of the same compound?
The value was 37.5%.

What about the “Responders with ≧1-grade increase in GEA score” value ([2]; postchemotherapy, Month 6) of the same compound?
The value was 80.2%.

What about the “Responders with ≧2-grade increase in GEA score” value ([2]; postchemotherapy, Month 6) of the same compound?
Its value is 45.8%.

And the “Responders with ≧3-point increase” value ([2]; postchemotherapy, Month 6)?
Its value is 47.9%.

And the “Primary composite endpoint responders” value ([2]; postchemotherapy, Month 6, listed as Bim/Bim)?
The value was 46.9%.

And the “Primary composite endpoint responders” value ([2]; postchemotherapy, Month 6, listed as Bimatoprost)?
Its value is 46.9%.

And the “Primary composite endpoint responders” value ([2]; postchemotherapy, Month 6, listed as bimatoprost)?
Its value is 46.9%.

And the “Responders with ≧2-grade increase in GEA score” value ([2]; postchemotherapy, Month 10, Veh/Bim (4 months after starting bimatoprost))?
The value was 50%.

What about the “Primary composite endpoint responders” value ([2]; postchemotherapy, Month 10, bimatoprost throughout) of the same compound?
The value was 54.2%.

What about the “Responders with ≧2-grade increase in GEA score” value ([2]; postchemotherapy, Month 12, Veh/Bim) of the same compound?
The value was 52.9%.

And the “Primary composite endpoint responders” value ([2]; postchemotherapy, Month 12, bimatoprost for 12 months (Bim/Bim))?
The value was 61.5%.

And the “Responders with ≧1-grade increase in GEA score” value [2, 5]?
Its value is 90.6%.

What about the “Responders with ≧3-point increase” value [2, 5] of the same compound?
The value was 63.5%.

What about the “Responders with ≧2-grade increase in GEA score” value ([2]; postchemotherapy, Month 12, bimatoprost up to 12 months) of the same compound?
The value was 57.3%.

What about the “Primary composite endpoint responders” value ([2]; postchemotherapy, Month 12, vehicle first 6 months then bimatoprost (Veh/Bim)) of the same compound?
The value was 67.6%.

What about the “ESQ Domain 2 mean change in total score from baseline” value ([2]; postchemotherapy, visit not stated (months 4 and 6 discussed)) of the same compound?
Its value is 2.8.
